Measurements reported in the supplement of paper PMC8967900.

Tests used:
Assay in all cases: selective drug sensitivity score (sDSS, relative to normal bone marrow) (sDSS (score)); higher = more potent and effective on the cell line relative to normal bone marrow cells
Details in all cases: 72 h
ALL-PO = test system: ALL-PO
COG-LL-394h = test system: COG-LL-394h
KASUMI-9 = test system: KASUMI-9
MHH-CALL-3 = test system: MHH-CALL-3
MHH-CALL-2 = test system: MHH-CALL-2
COG-LL-402h = test system: COG-LL-402h
TMD5 = test system: TMD5
MOLT-4 = test system: MOLT-4
PF-382 = test system: PF-382
COG-LL-317 = test system: COG-LL-317
JURKAT = test system: JURKAT
COG-LL-355h = test system: COG-LL-355h
ALL-SIL = test system: ALL-SIL
380 = test system: 380
RPMI-8402 = test system: RPMI-8402
P30-OHKUBO = test system: P30-OHKUBO
RCH-ACV = test system: RCH-ACV
P12-ICHIKAWA = test system: P12-ICHIKAWA
KARPAS-45 = test system: KARPAS-45
PEER = test system: PEER
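Note: ALL cell lines in 384-well plates, five doses spanning 10,000-fold, each plate scaled between vehicle and 100 µmol/L benzalkonium chloride controls, sDSS an adapted area-under-curve metric.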

Compound | selective drug sensitivity score (ALL-PO) | selective drug sensitivity score (COG-LL-394h) | selective drug sensitivity score (KASUMI-9) | selective drug sensitivity score (MHH-CALL-3) | selective drug sensitivity score (MHH-CALL-2) | selective drug sensitivity score (COG-LL-402h) | selective drug sensitivity score (TMD5) | selective drug sensitivity score (MOLT-4) | selective drug sensitivity score (PF-382) | selective drug sensitivity score (COG-LL-317) | selective drug sensitivity score (JURKAT) | selective drug sensitivity score (COG-LL-355h) | selective drug sensitivity score (ALL-SIL) | selective drug sensitivity score 380 | selective drug sensitivity score (RPMI-8402) | selective drug sensitivity score (P30-OHKUBO) | selective drug sensitivity score (RCH-ACV) | selective drug sensitivity score (P12-ICHIKAWA) | selective drug sensitivity score (KARPAS-45) | selective drug sensitivity score (PEER)
Cc1c2oc3c(C)ccc(C(=O)N[C@@H]4C(=O)N[C@H](C(C)C)C(=O)N5CCC[C@H]5C(=O)N(C)CC(=O)N(C)[C@@H](C(C)C)C(=O)O[C@@H]4C)c3nc-2c(C(=O)N[C@@H]2C(=O)N[C@H](C(C)C)C(=O)N3CCC[C@H]3C(=O)N(C)CC(=O)N(C)[C@@H](C(C)C)C(=O)O[C@@H]2C)c(N)c1=O [Dactinomycin] (top concentration 1000 nM) | 8.24 | 12.2 | 19.4 | 15.7 | 12.4 | 15.2 | 7.84 | 17.3 | 3.64 | 20.7 | 2.64 | 8.54 | 8.04 | 17.2 | 1.54 | 19.1 | 18.5 | 0.44 | 8.44 | 0.64
C=CC(=O)Nc1cccc(Oc2nc(Nc3ccc(N4CCN(C)CC4)cc3)nc3ccsc23)c1 [Olmutinib] (top concentration 1000 nM) | -0.02 | -0.02 | 1.68 | -0.02 | 6.88 | 1.28 | -0.02 | -0.02 | -0.02 | 0.48 | -0.02 | 1.78 | -0.02 | -0.02 | -0.02 | 1.38 | 1.58 | -0.02 | 0.28 | -0.02
CCNc1nc(Nc2cc(F)c(C(=O)N3CCOCC3)cc2OC)ncc1C(F)(F)F [GNE-7915] (top concentration 1000 nM) | -0.06 | -0.06 | -0.06 | -0.06 | 1.74 | -0.06 | 5.44 | -0.06 | -0.06 | 0.34 | -0.06 | -0.06 | -0.06 | -0.06 | -0.06 | -0.06 | -0.06 | -0.06 | -0.06 | -0.06
O=C(NCc1ccncc1)C12CC3CC(C1)CC(c1ccc(Cl)cc1)(C3)C2 (top concentration 50000 nM) | 3.28 | 2.88 | 4.28 | 2.78 | 4.38 | 0.08 | 0.68 | 1.98 | 0.48 | -0.12 | 3.18 | 0.48 | 2.08 | 0.38 | 2.68 | 3.18 | 4.08 | 3.68 | 3.28 | 2.88
CNC(=O)c1ccc(N2C(=S)N(c3cnc(C#N)c(C(F)(F)F)c3)C(=O)C23CCC3)cc1F [Apalutamide] (top concentration 10000 nM) | 0 | 0 | 0 | 0 | 0 | 0.2 | 0 | 0 | 0 | 0 | 0 | 0 | 0 | 0 | 0 | 0 | 0 | 0 | 0 | 0.1
c1cn2cc(-c3ccc4cn[nH]c4c3)nc(Nc3ccc(N4CCOCC4)cc3)c2n1 [Entospletinib] (top concentration 5000 nM) | 7.26 | -0.64 | 2.96 | -0.64 | -0.64 | 0.36 | -0.64 | -0.64 | -0.64 | -0.64 | -0.64 | 1.06 | -0.64 | -0.64 | -0.64 | 6.96 | 12.3 | -0.64 | -0.64 | -0.64
COc1cc2ncnc(Nc3ccc(F)c(Cl)c3)c2cc1OCCCN1CCOCC1 [Gefitinib] (top concentration 10000 nM) | 4.16 | 0.16 | 0.16 | -2.94 | 1.86 | 0.96 | -2.14 | -0.34 | 0.26 | 0.36 | -1.44 | 0.96 | 3.66 | -3.04 | 3.96 | -0.04 | 1.66 | 0.96 | 3.36 | 2.76
Cc1ccc(-n2nc(C(C)(C)C)cc2NC(=O)Nc2ccc(OCCN3CCOCC3)c3ccccc23)cc1 [Doramapimod] (top concentration 10000 nM) | 4.16 | 2.16 | 4.56 | -0.24 | 4.56 | 2.66 | -0.14 | 2.46 | 0.46 | 10.9 | 1.16 | 1.26 | -0.24 | -0.24 | 1.96 | 4.26 | 4.56 | 0.26 | -0.24 | 1.86
O=C(O)CC1CC(c2ccccc2)=NO1 (stereo not given) [VGX-1027] (top concentration 10000 nM) | -0.04 | -0.04 | -0.04 | -0.04 | -0.04 | -0.04 | -0.04 | -0.04 | -0.04 | -0.04 | -0.04 | -0.04 | -0.04 | -0.04 | -0.04 | -0.04 | -0.04 | -0.04 | -0.04 | -0.04
COc1cc(C)c(/C=C/C(C)=C/C=C/C(C)=C/C(=O)O)c(C)c1C [Acitretin] (top concentration 10000 nM) | -0.3 | -1.6 | 2.9 | -0.2 | -0.7 | -0.1 | -1.6 | -1.2 | -1.4 | -0.5 | -1.2 | 2.3 | -1.6 | 15.2 | -1.6 | -1.6 | -1.6 | -0.8 | 0.2 | -0.6
Cc1ccc(-c2cc(C(F)(F)F)nn2-c2ccc(S(N)(=O)=O)cc2)cc1 [Celecoxib] (top concentration 10000 nM) | 2.84 | -0.06 | -0.06 | 5.24 | 0.34 | -0.06 | 1.34 | 0.14 | 0.24 | -0.06 | 0.14 | -0.06 | 0.54 | 7.74 | 0.54 | -0.06 | 0.64 | 0.24 | 0.34 | 0.94
Cc1cc2c(F)c(Oc3ncnn4cc(OC[C@@H](C)O)c(C)c34)ccc2[nH]1 [Brivanib] (top concentration 1000 nM) | -0.04 | -0.04 | -0.04 | -0.04 | -0.04 | -0.04 | -0.04 | -0.04 | 0.06 | -0.04 | 1.46 | -0.04 | -0.04 | -0.04 | 0.46 | -0.04 | 1.96 | 1.56 | 0.06 | -0.04
CCCCNc1ncc(C(=O)NCc2ccc(-n3ccnc3)cc2)c(NC2CCC(O)CC2)n1 (stereo not given) [UNC2881] (top concentration 2500 nM) | 7.2 | 0 | 0 | 0 | 0 | 0 | 0.5 | 0.4 | 0 | 0.6 | 0 | 0 | 2.8 | 0 | 0 | 0 | 0.4 | 0 | 0.5 | 1.5
Nc1nc(Nc2ccc3c(c2)CC[C@@H](N2CCCC2)CC3)nn1-c1cc2c(nn1)-c1ccccc1CCC2 [BGB324] (top concentration 10000 nM) | 6.02 | 2.82 | 5.22 | -0.98 | -1.58 | 2.32 | -2.98 | 3.22 | 0.32 | -0.38 | 1.02 | 3.82 | 3.12 | -0.88 | 2.92 | 5.82 | 5.02 | 0.02 | 1.92 | 4.42
CN1CC[C@@H](NC(=O)Nc2ccc(C#N)cc2)C[C@@H]1c1nc2ccccc2[nH]1 [Glasdegib] (top concentration 1000 nM) | 0 | 0 | 0 | 0.7 | 0 | 0 | 0.3 | 0 | 0 | 1.5 | 0 | 0 | 0.8 | 0 | 0 | 0 | 0 | 0 | 0 | 0
CCCCC(=O)OCC(=O)[C@]1(O)Cc2c(O)c3c(c(O)c2[C@@H](O[C@H]2C[C@H](NC(=O)C(F)(F)F)[C@H](O)[C@H](C)O2)C1)C(=O)c1c(OC)cccc1C3=O [Valrubicin] (top concentration 5000 nM) | -2.62 | 7.78 | 5.68 | 16 | 7.48 | 13.8 | 4.18 | 10.8 | 1.48 | 17 | 4.98 | 2.98 | -0.72 | 13 | 6.88 | 5.98 | 11.8 | 8.48 | -2.62 | -9.32
CCC1=C[C@@H]2CN(C1)Cc1c([nH]c3ccccc13)[C@@](C(=O)OC)(c1cc3c(cc1OC)N(C)[C@H]1[C@@](O)(C(=O)OC)[C@H](OC(C)=O)[C@]4(CC)C=CCN5CC[C@]31[C@@H]54)C2 [Vinorelbine] (top concentration 10000 nM) | 17.5 | 9.58 | 24.2 | 11 | 19.3 | 22.2 | 13.4 | 20.6 | 11 | 25.6 | 23.5 | 5.98 | 23.6 | 23.3 | 21 | 21.5 | 25.1 | 15.9 | 17.8 | 19.8
